From US8158589B2, “Peptides with the capacity to bind to transforming growth factor β1 (TGF-β1)” (Proyecto Biomedicine Cima, S.L., priority 2003, dated 2012)
Ends that are not written are not given here.

Tests used:
TGF-β1 [1] = molecular target: T1, TGF-β1 (Rattus norvegicus, UniProt P17246); experiment: Corneal fibrosis and haze after 1 N NaOH damage, topical eye drops, photographs analysed with ImageJ; format: in vivo, Long-Evans rats; conditions: first experiment, Group 1
T1 construct: from tissue; host or cells: cornea of Long-Evans rats
T1 sequence (P17246 279-390 limits assumed): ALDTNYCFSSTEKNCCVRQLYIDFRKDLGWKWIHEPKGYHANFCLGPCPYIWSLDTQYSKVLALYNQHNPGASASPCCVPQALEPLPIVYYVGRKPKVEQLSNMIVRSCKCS
Source text: Male Long-Evans rats aged 10 weeks were used, divided into 5 groups: • Group 1: 12 rats, 6 treated with dexamethasone and 6 treated with mitomycin C • Group 2: 12 rats, 6 treated with p17 of the first formulation (see section 6.1.2.b) and 6 treated with p144 of the first formulation (see section 6.1.2.b) • Group 3: 12 rats, 6 treated with p17 of the second formulation (see section 6.1.2.b) and 6 treated with p144 of the second formulation (see section 6.1.2.b) • Group 4: 12 rats, 6 treated with p17 of the third formulation (see section 6.1.2.b) and 6 treated with p144 of the third formulation (see section 6.1.2.b) • Group 5: 12 rats, 6 treated with p17 of the fourth formulation (see section 6.1.2.b) and 6 treated with p144 of the fourth formulation (see section 6.1.2.b) • Group 6: 12 rats, 6 treated with p17 of the fifth formulation (see section 6.1.2.b) and 6 treated with p144 of the fifth formulation (see section 6.1.2.b)
To perform the damage in the cornea, the animals were anesthetized with isoflurane and a 5 mm Whatman paper disc impregnated in 1 N NaOH for 30 seconds was applied to them in the central part of the eye. After the damage, they were washed with abundant physiological saline serum and an antibiotic ointment was applied to them to prevent possible infections in the affected area.
After conducting several in vivo studies with the previously described groups of animals, it could be concluded that the chemical damage occurring after the application of NaOH for 30 seconds caused an excessive lesion for the study which was to be conducted, therefore it was decided to conduct new experiments reducing the time to 15 seconds.
It was randomly established that the left eye of each animal would act as a control and that the right eye would be the treated eye, such that the same animals acts as a control in addition to being treated. It must be pointed out that all the animals received antibiotic treatment in both eyes daily only during the first week of the study for the purposes of avoiding microbial keratitis.
Starting from 0.15% sodium hyaluronate (Hyabak 10 mL, Thea) without preservatives: • p144: 20 mg were dissolved in 5 ml of eye drops, 40 μl of saturated concentrated NaOH were incorporated, stirring and adding in portions of 5 μl. It was sonicated until solubilization. To adjust the pH, 500 μl of 1M Hepes were added, such that the pH changed from 10.5 to 7 • p144 control: 40 μl of saturated NaOH and 500 μl of 1 M HEPES (final concentration of HEPES 50 mM) • p17: 20 mg were dissolved in 5 ml of the eye drops, it was sonicated until complete solubilization and it was incorporated to the vial with a 10 ml syringe and a blue needle to perforate the filter of the contained (final concentration 2 mg/ml) • p17 control: non-manipulated eye drops • Note: The formulations were maintained at 4° C. throughout the study.
The administration of the treatment was initiated twenty-four hours after the damage. After that time a follow-up of the damage was performed, which consisted of taking photographs at days 0, 7, 14, 21, 28 and 35. To take the photographs the animals were anesthetized with isoflurane. Photographs were taken of both the control eye (left) and of the treated eye (right) with and without fluorescein. The photographs with fluorescein allowed to observe the evolution of the epithelial closure of the generated lesion, whereas the photographs without fluorescein show the evolution of the haze of the lesioned area. […]

TGF-β1 [2] = molecular target: T2, TGF-β1 (Mus musculus, UniProt P04202); experiment: Model of acute liver damage induced by CCl4, type I collagen mRNA by real time PCR; format: in vivo, mice; parameters: key to % Inhibition of type I collagen mRNA induction (in vivo TGF-β1 biological activity): Neg: negative; conditions: for % Inhibition of type I collagen mRNA induction (in vivo TGF-β1 biological activity): Balb/C mice, oral CCl4, 50 μg of peptide every 24 h, sacrifice after 72 hours; for inhibition of the biological activity of TGF-β1 in vivo (in words): acute liver damage, type I collagen mRNA
T2 construct: from tissue; host or cells: liver of Balb/C mice (CCl4 model); lung of C57BL/6 mice (bleomycin model)
T2 sequence (P04202 279-390 limits assumed): as the sequence (P17246 279-390 limits assumed) above
Method: Acute liver damage generates a cascade of effects and physiological responses, including elevations in the concentrations of TGF-β1. This elevation is responsible for the expression of the type I collagen gene, among others. In this model of acute liver damage, female Balb/C mice weighing 25 to 30 g, were orally administered a dose of 2 μl of CCl4 (per gram of body weight) dissolved in an equivalent volume of corn oil (volumetric ratio of 1:1). The control group received an equivalent volume of corn oil only, and the treated groups received (following the single oral administration of CCl4 in corn oil) 50 μg of peptide in 500 μl of 1% physiological saline solution in DMSO (dimethyl sulfoxide) every 24 h. After 72 hours all animals were sacrificed, and the liver samples were processed. To evaluate mRNA expression, liver tissue was frozen in liquid nitrogen and stored at −80° C. until further use. Other liver tissue samples were stored in OCT® or Tissue-Tek® (Sakura Finetek B.V.) and processed in the same way as the samples used for mRNA studies. Other liver samples were fixed in 10% buffered formalin solution, embedded in paraffin and processed for their histological evaluation. The amount of mRNA encoding type I collagen was quantified in all groups using a quantitative polymerase chain reaction (PCR) technique. […] The capacity of the testing peptides to block the acute damage, as assessed by measuring the levels of induced type I collagen mRNA was quantified by real time PCR. […] The peptides tested were obtained by conventional solid peptide synthesis procedures (Merrifield R B. J Am Chem Soc 1963; 85:2149-2154; Atherton E et al. J Chem Soc Perkin Trans 1981; 1:538-546).

TGF-β1 [3] = molecular target: T3, TGF-β1 (Homo sapiens, UniProt P01137); experiment: Biopanning of phage-displayed 15-aa peptide library on biotinylated TGF-β1, number of colonies per sequence; format: binding; parameters: purchased Roche; host or cells: added to Mv-1-Lu (CCL-64) mink lung epithelial cells; conditions: clones carrying the sequence among 108 colonies after the last biopanning cycle; approximate indication of affinity for TGF-β1
T3 sequence (P01137 279-390 limits assumed, species assumed): as the sequence (P17246 279-390 limits assumed) above, with S75A counted along it
Source text: These libraries comprise a plurality of filamentous bacteriophages (M13), each one containing a peptide genetically fused to a protein of the virus envelope—in this case bound to the N-terminal end of envelope protein pIII (FIG. 1). […] In the phage libraries, the sequence encoding the peptide originates from a sequence degenerated in each one of the 15 positions with the 20 natural amino acids, thus allowing the presentation of 1.1×10^12 possible sequences of 15 amino acids in different phages. The physical ratio, 1:1, between the peptide sequence and the DNA encoding it within the bacteriophage allows the selection (from a broad range of variants) of those sequences that specifically bind to TGF-β1. This process is carried out via an in vitro selection protocol known as “biopanning”.
This technique involves incubating a set of phages representative (to practical effects) of all the 15-aa variants, in a plate blocked with streptavidin (10 μg/ml in 0.1 M NaHCO3, during 2 h at room temperature) to which biotinylated TGF-β1 is added. […] TGF-β1 contacts the peptides carried by the phages at a concentration of […]. After about 12 hours incubation, unbound phages are eliminated by 5 washings with PBS/Tween (phosphate buffered saline/polyoxyalkylene derivatives of sorbitan fatty acid esters). […] The eluted phages are then amplified by infection in a bacterial strain (E. coli). The process is repeated three cycles so that an enrichment in the content of phages which specifically bind, and with high affinity, to TGF-β1 is achieved (FIG. 3). […] Thus, the phages selected in each cycle show more and more affinity for TGF-β1. At the end of the process, phages which have been selected for their affinity for TGF-β1, are sequenced by using primers, after isolation by tetracycline resistance of the genetically modified phages after infecting E. coli cells. […] The number of times which a sequence is repeated, corresponding to a 15 amino acids peptide carried by each clone, from the total of sequenced colonies is an indication of the degree of relative affinity of said 15 amino acids sequence for TGF-β1.
The selection of clones, obtained from the “biopanning”, was carried out by selection of the bacterial colonies infected with the phages in the presence of a bacterial antibiotic; the bacteria resistance is acquired by a tetracycline resistance gene encoded by the phage genome. Thus, only those colonies infected with bacteriophages are able to grow. This means that each colony contains the genome of only one phage coding for only one peptide presented in its surface.
A total number of 108 colonies of phage-infected bacteria were obtained from the last selection cycle of “biopanning”. The sequence of the regions coding for the peptides present in the pIII protein was carried out using primers identified with SEQ ID NO: 23. This table also reflects the number of colonies (clones) carrying said sequences.
The number of clones (colonies) of each sequence gives an approximate indication of the degree of affinity of the peptide for TGF-β1, that is, the more colonies the more binding affinity.

TGF-β1 [4] = molecular target: T3, TGF-β1; format: cell-based; parameters: purchased Roche; host or cells: added to Mv-1-Lu (CCL-64) mink lung epithelial cells; conditions: Mv-1-Lu proliferation
Source text: The cell line Mv-1-Lu (CCL-64, […], Virginia, USA) derives from mink pulmonary epithelium, grows as a monolayer, and responds to the presence of TGF-β1 by decreasing its proliferation (FIG. 5). Thus, the peptide-mediated inhibition of this cytokine is able to restore cell growth and reflects the capacity of the different peptides to inhibit the biological activity of TGF-β1 in vitro. The peptides tested were obtained by peptide synthesis, in accordance to conventional procedures (Merrifield R B. J Am Chem Soc 1963; 85:2149-2154; Atherton E et al. J Chem Soc Perkin Trans 1981; 1:538-546).
The Mv-1-Lu cells are cultured to confluence in complete medium [RPMI-1640 supplemented with L-glutamine, sodium pyruvate, antibiotics and 10% fetal bovine serum (FBS)] at 37° C. and in 5% CO2 in 162 cm^2 bottles (Costar Corporation, CA, USA). Following trypsinization, the cells are cultured in 200 μl of complete medium in 96-well plates at an initial density of 5,000 cells/well at 37° C. and in 5% CO2 during 6 hours to ensure adhesion. Then, different concentrations of the peptides to be tested are added, starting from 200 μg/ml, and following 200 pg/ml of TGF-β1 (Roche) are added. After 12 hours of incubation 1 μCi of methyl-3H-thymidine (Amersham Life Science, Buckinghamshire, United Kingdom) is added per well in 25 μl of clean medium (RPMI-1640). The plate is incubated for 12 more hours under the same conditions. Finally, the cells are harvested (Filtermate 196 Harvester, Packard), transferring the tritiated thymidine, incorporated in the course of DNA synthesis, to plates (UniFilter-96 GF/C®, Perkin Elmer). Following the addition of scintillation fluid, the radioactivity was quantified using a scintillation counter (Top Count, Microplate Scintillation Counter, Packard). As positive and negative control, use was made of the incorporation of tritiated thymidine in the absence and presence of TGF-β1, respectively. The inhibition of TGF-β1 activity in this test was calculated based on the following formula: […]
The negative control represents the incorporation of tritiated thymidine in the presence of TGF-β1 but in the absence of peptide, whereas the positive control refers to the incorporation of tritiated thymidine in the absence of TGF-β1 and peptide. Thus, according to the capacity of the peptides to revert the cytokine repressor effect on Mv-1-Lu cell line proliferation, percentage of TGF-β1 biological activity inhibition by the peptides can be measured (Table 2).
Comparisons have been made of the activity of truncated peptides (derived from peptide sequence SEQ ID NO: 17) versus the complete sequence, in terms of the capacity to revert the suppressor effect of TGF-β1 upon proliferation of the Mv-1-Lu cell line. To this effect, and to determine the minimum sequence of peptide SEQ ID NO: 17 capable of inhibiting the biological activity of TGF-β1 in vitro, truncated versions of this peptide were synthesized, with truncation at the N-terminal end, C-terminal end or in both ends of the molecule. The peptides tested were obtained by peptide synthesis following conventional procedures (Merrifield R B. J Am Chem Soc 1963; 85:2149-2154; Atherton E et al. J Chem Soc Perkin Trans 1981; 1:538-546). Following the same methodology described in Example 2, the activity of truncated peptides versus the complete sequence of the peptide SEQ ID NO: 17 was quantified, in terms of a proliferation assay of the Mv-1-Lu cell line.

| Compound | clinical efficacy in the treatment of corneal fibrosis (TGF-β1 [1]) | % Inhibition of type I collagen mRNA induction (in vivo TGF-β1 biological activity) (TGF-β1 [2]) | inhibition of the biological activity of TGF-β1 in vivo (in words) (TGF-β1 [2]) | No. colonies (TGF-β1 [3]) | inhibition of the biological activity of TGF-β1 in vitro (in words) (TGF-β1 [4]) |
| --- | --- | --- | --- | --- | --- |
| CO[C@@]12[C@H](COC(N)=O)C3=C(C(=O)C(C)=C(N)C3=O)N1C[C@@H]1N[C@@H]12 [mitomycin C] | correspond to those described in the scientific literature |  |  |  |  |
| PPYHRFWRGHRHAVQ [SEQ ID NO: 6] |  | 74.94 ± 25.3% | inhibitory capacity | 12 | inhibitory capacity |
| MPLSRYWWLFSHRPR [SEQ ID NO: 18] |  | Neg |  | 1 | only inhibitory activity |
| RFFTRFPWHYHASRL [SEQ ID NO: 3] |  | 2.09% | much less active | 41 | only inhibitory activity |
| RLAHSHRHRSHVALT [SEQ ID NO: 4] |  | 51.30 ± 15.3% | inhibitory capacity | 18 | inhibitory capacity |
| SGRRHLHRHHIFSLP [SEQ ID NO: 14] |  | 49.84 ± 24% | inhibitory capacity | 2 | inhibitory capacity |
